Source: patent US10323038B2, “Pyrazole compounds and methods of making and using same” (ABIDE THERAPEUTICS, INC., priority 2015, dated 2019)

Experiments:
MAGL = MAGL (Mus musculus (Mouse), UniProt O35678); assay: In vitro competitive activity-based protein profiling, MAGL (mouse); format: biochemical; details: for inhibition at 1 µM: read-out: MAGL % inh. 1 μM (mouse)
Procedure, shortened: (§1)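 Proteomes at 1.0 mg/mL protein (mouse brain membranes or cell lysates; human prefrontal cortex or cell membranes) preincubated with inhibitor 30 min at 37 °C. Then FP-Rh or HT-01 probe (50 μM stock) added for 30 min at 37 °C. MAGL and FAAH activity measured by SDS-PAGE band fluorescence.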

FAAH = FAAH (Mus musculus (Mouse), UniProt O08914); assay: In vitro competitive activity-based protein profiling, FAAH (mouse); format: biochemical; details: for inhibition at 1 µM: read-out: FAAH % inh. 1 μM (mouse)
Chain of FAAH (O08914 whole entry): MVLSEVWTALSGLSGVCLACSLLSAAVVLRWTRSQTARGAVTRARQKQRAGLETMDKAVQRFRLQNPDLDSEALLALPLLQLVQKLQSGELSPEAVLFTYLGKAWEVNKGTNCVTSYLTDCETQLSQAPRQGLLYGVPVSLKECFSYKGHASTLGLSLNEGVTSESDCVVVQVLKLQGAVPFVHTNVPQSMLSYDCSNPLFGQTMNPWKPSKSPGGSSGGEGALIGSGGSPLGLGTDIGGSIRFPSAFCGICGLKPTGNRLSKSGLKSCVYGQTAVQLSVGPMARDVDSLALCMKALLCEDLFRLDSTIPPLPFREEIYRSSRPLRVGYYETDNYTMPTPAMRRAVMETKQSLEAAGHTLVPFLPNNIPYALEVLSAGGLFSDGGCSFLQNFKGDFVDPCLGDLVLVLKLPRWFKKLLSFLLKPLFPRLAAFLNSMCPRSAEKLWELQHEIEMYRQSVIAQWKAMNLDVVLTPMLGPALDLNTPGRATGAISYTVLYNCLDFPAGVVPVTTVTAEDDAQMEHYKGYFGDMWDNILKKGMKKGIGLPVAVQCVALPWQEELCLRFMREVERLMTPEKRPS
Procedure, shortened: as §1

Chain of MAGL (O35678 whole entry): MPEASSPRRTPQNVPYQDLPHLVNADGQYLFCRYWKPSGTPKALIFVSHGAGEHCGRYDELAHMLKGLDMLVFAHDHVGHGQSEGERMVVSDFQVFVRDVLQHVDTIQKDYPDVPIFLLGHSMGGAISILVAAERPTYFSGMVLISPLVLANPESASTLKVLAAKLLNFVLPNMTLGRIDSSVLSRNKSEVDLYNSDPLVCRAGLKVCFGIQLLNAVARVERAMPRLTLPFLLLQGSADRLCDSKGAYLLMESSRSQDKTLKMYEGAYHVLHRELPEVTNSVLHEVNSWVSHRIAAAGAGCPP

| SMILES | inhibition at 1 µM (MAGL) [%] | inhibition at 1 µM (FAAH) [%] | IC50 (MAGL) [nM] | IC50 (FAAH) [nM] |
| --- | --- | --- | --- | --- |
| CC(=O)N(C)c1cnn(C(=O)N2CC3(CCN(Cc4ccccc4Cl)CC3)C2)c1 [Example 86, N-(1-(7-(2-chlorobenzyl)-2,7-diazaspiro[3.5]nonane-2-carbonyl)-1H-pyrazol-4-yl)-N-methylacetamide] | 50 to 75 | ≥ 75 | – | – |
| CC(=O)N(C)c1cnn(C(=O)N2CC3CN(Cc4ccc(OCC(=O)N5CCCC5)cc4C(F)(F)F)CC3C2)c1 (stereo not shown) [Example 256, N-methyl-N-(1-(5-(4-(2-oxo-2-(pyrrolidin-1-yl)ethoxy)-2-(trifluoromethyl)benzyl)octahydropyrrolo [3,4-c]pyrrole-2-carbonyl)-1H-pyrazol-4-yl)acetamide] | 0 to 25 | ≥ 75 | – | – |
| CC(=O)N(C)c1cnn(C(=O)N2CC3CN(Cc4cccc(N5CCCC5)c4)CC3C2)c1 (stereo not shown) [Example 119, N-methyl-N-(1-(5-(3-(pyrrolidin-1-yl)benzyl)octahydropyrrolo[3,4-c]pyrrole-2-carbonyl)-1H-pyrazol-4-yl)acetamide] | ≥ 75 | ≥ 75 | ≤ 100 | ≤ 100 |
| CS(=O)(=O)Nc1cnn(C(=O)N2CCC3(CCN(Cc4ccc(-c5nccs5)cc4Cl)C3)C2)c1 (stereo not shown) [Example 287, N-(1-(7-(2-chloro-4-(thiazol-2-yl)benzyl)-2,7-diazaspiro[4.4]nonane-2-carbonyl)-1H-pyrazol-4-yl)methanesulfonamide] | 50 to 75 | ≥ 75 | – | – |
| CC(=O)N(C)c1cnn(C(=O)N2CCC3(CC2)CN(Cc2ccc(N4CCOCC4)cc2)C3)c1 [Example 27, N-methyl-N-(1-(2-(4-morpholinobenzyl)-2,7-diazaspiro[3.5]nonane-7-carbonyl)-1H-pyrazol-4-yl)acetamide] | ≥ 75 | 0 to 25 | – | – |
| CC(=O)N(C)c1cnn(C(=O)N2CC3CN(Cc4ccc(Cl)cc4Cl)CC3C2)c1 (stereo not shown) [Example 113, N-(1-(5-(2,4-dichlorobenzyl)octahydropyrrolo[3,4-c]pyrrole-2-carbonyl)-1H-pyrazol-4-yl)-N-methylacetamide] | ≥ 75 | ≥ 75 | ≤ 100 | ≤ 100 |
| CC(=O)N(C)c1cnn(C(=O)N2C[C@H]3C[C@@H](N(C)Cc4ccc(N5C6CCC5COC6)cc4C(F)(F)F)C[C@H]3C2)c1 [Example 149, N-(1-(cis-5-((4-(3-oxa-8-azabicyclo[3.2.1]octan-8-yl)-2-(trifluoromethyl)benzyl)(methyl)amino)octahydrocyclopenta[c]pyrrole-2-carbonyl)-1H-pyrazol-4-yl)-N-methylacetamide] | ≥ 75 | ≥ 75 | – | – |
| CC(=O)N(C)c1cnn(C(=O)N2CCC3(CCN(Cc4ccc(-c5ncccn5)cc4Cl)C3)C2)c1 (stereo not shown) [Example 268, N-(1-(7-(2-chloro-4-(pyrimidin-2-yl)benzyl)-2,7-diazaspiro[4.4]nonane-2-carbonyl)-1H-pyrazol-4-yl)-N-methylacetamide] | ≥ 75 | ≥ 75 | – | – |
| CC(=O)N(C)c1cnn(C(=O)N2CC3CN(Cc4ccc(OCc5ccccc5)cc4)CC3C2)c1 (stereo not shown) [Example 248, N-(1-(5-(4-(benzyloxy)benzyl)octahydropyrrolo[3,4-c]pyrrole-2-carbonyl)-1H-pyrazol-4-yl)-N-methylacetamide] | ≥ 75 | ≥ 75 | ≤ 100 | ≤ 100 |
| CS(=O)(=O)Nc1cnn(C(=O)N2CCN(Cc3ccc(-c4cnccn4)cc3C(F)(F)F)CC2)c1 [Example 289, N-(1-(4-(4-(pyrazin-2-yl)-2-(trifluoromethyl)benzyl)piperazine-1-carbonyl)-1H-pyrazol-4-yl)methanesulfonamide] | 25 to 50 | ≥ 75 | – | – |
| CC(=O)N(C)c1cnn(C(=O)N2C[C@H]3C[C@@H](N(C)Cc4cc(C(F)(F)F)ccc4N4CCCC4)C[C@H]3C2)c1 [Example 168, N-methyl-N-(1-(cis-5-(methyl(2-(pyrrolidin-1-yl)-5-(trifluoromethyl)benzyl)amino)octahydrocyclopenta[c]pyrrole-2-carbonyl)-1H-pyrazol-4-yl)acetamide] | ≥ 75 | 50 to 75 | – | – |
| CC(=O)N(C)c1cnn(C(=O)N2C[C@H]3C[C@@H](N(C)Cc4ccc(N5CCCC5)cc4C(F)(F)F)C[C@H]3C2)c1 [Example 152, N-methyl-N-(1-(cis-5-(methyl(4-(pyrrolidin-1-yl)-2-(trifluoromethyl)benzyl)amino)octahydrocyclopenta[c]pyrrole-2-carbonyl)-1H-pyrazol-4-yl)acetamide] | ≥ 75 | ≥ 75 | – | – |

More lines, now with the values ahead:

| inhibition at 1 µM (MAGL) [%] | inhibition at 1 µM (FAAH) [%] | IC50 (MAGL) [nM] | IC50 (FAAH) [nM] | SMILES |
| --- | --- | --- | --- | --- |
| ≥ 75 | ≥ 75 | – | – | CC(=O)N(C)c1cnn(C(=O)N2CCC3(CC2)CN(Cc2ccccc2C)C3)c1 [Example 42, N-methyl-N-(1-(2-(2-methylbenzyl)-2,7-diazaspiro[3.5]nonane-7-carbonyl)-1H-pyrazol-4-yl)acetamide] |
| ≥ 75 | ≥ 75 | ≤ 100 | 100 to 1000 | CC(=O)N(C)c1cnn(C(=O)N2CCN(Cc3ccc(N4CCOCC4)cc3Cl)CC2)c1 [Example 203, N-(1-(4-(2-chloro-4-morpholinobenzyl)piperazine-1-carbonyl)-1H-pyrazol-4-yl)-N-methylacetamide] |
| ≥ 75 | ≥ 75 | 100 to 1000 | ≤ 100 | CC(=O)N(C)c1cnn(C(=O)N2CC3CN(Cc4ccccc4F)CC3C2)c1 (stereo not shown) [Example 182, N-(1-(5-(2-fluorobenzyl)octahydropyrrolo[3,4-c]pyrrole-2-carbonyl)-1H-pyrazol-4-yl)-N-methylacetamide] |
| ≥ 75 | ≥ 75 | – | – | CC(=O)N(C)c1cnn(C(=O)N2CC3CN(Cc4cc(C(F)(F)F)ccc4Cl)CC3C2)c1 (stereo not shown) [Example 106, N-(1-(5-(2-chloro-5-(trifluoromethyl)benzyl)octahydropyrrolo[3,4-c]pyrrole-2-carbonyl)-1H-pyrazol-4-yl)-N-methylacetamide] |
| ≥ 75 | ≥ 75 | – | – | CC(=O)N(C)c1cnn(C(=O)N2C[C@H]3C[C@@H](N(C)Cc4cc(C(F)(F)F)ccc4Cl)C[C@H]3C2)c1 [Example 163, N-(1-(cis-5-((2-chloro-5-(trifluoromethyl)benzyl)(methyl)amino)octahydrocyclopenta[c]pyrrole-2-carbonyl)-1H-pyrazol-4-yl)-N-methylacetamide] |
| 50 to 75 | ≥ 75 | 1000 to 10000 | ≤ 100 | CC(=O)N(C)c1cnn(C(=O)N2CC3(CCN(Cc4cccc(Oc5ccccc5)c4)CC3)C2)c1 [Example 229, N-methyl-N-(1-(7-(3-phenoxybenzyl)-2,7-diazaspiro[3.5]nonane-2-carbonyl)-1H-pyrazol-4-yl)acetamide] |
| ≥ 75 | ≥ 75 | ≤ 100 | ≤ 100 | CC(=O)N(C)c1cnn(C(=O)N2CC3CN(Cc4cc(Cl)cc(N5CCOCC5)c4)CC3C2)c1 (stereo not shown) [Example 125, N-(1-(5-(3-chloro-5-morpholinobenzyl)octahydropyrrolo[3,4-c]pyrrole-2-carbonyl)-1H-pyrazol-4-yl)-N-methylacetamide] |
